Active and inactive are the calls of the source. The calls are words filed in the database; no cut-off is given here.
How the values were obtained:
[1] = target: T1, Neuropeptide Y receptor type 5 (Homo sapiens, UniProt Q15761); experiment: Displacement of [125I]PYY from human recombinant Y5 receptor expressed in mouse LMtk cells; type: cell-based
T1 sequence (Q15761 whole entry): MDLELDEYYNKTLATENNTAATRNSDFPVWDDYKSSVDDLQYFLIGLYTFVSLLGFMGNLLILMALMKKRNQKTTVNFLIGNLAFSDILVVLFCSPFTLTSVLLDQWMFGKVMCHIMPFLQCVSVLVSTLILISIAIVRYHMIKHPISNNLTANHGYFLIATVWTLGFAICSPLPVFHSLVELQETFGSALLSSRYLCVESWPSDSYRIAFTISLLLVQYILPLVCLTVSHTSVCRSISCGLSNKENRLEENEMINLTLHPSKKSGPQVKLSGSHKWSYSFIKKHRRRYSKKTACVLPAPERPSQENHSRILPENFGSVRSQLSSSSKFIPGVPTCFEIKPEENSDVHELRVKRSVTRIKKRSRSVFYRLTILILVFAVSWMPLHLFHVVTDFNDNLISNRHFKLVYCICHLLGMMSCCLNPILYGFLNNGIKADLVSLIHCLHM

[2] = Solubility at pH 5; type: physicochemical; conditions: buffer
[3] = Lipophilicity, log D at pH 7.4; type: physicochemical; conditions: buffer
[4] = Solubility at pH 1; type: physicochemical; conditions: buffer
[5] = Ratio of drug level in brain to plasma of rat at 3 mg/kg, iv after 60 mins; type: ADME, organism-based; set-up: dose 3 mg/kg, route intravenous; conditions: brain and plasma, read-out: BPR
[6] = Solubility at pH 3; type: physicochemical; conditions: buffer
[7] = Oral bioavailability in rat at 10 mg/kg; type: ADME, organism-based; conditions: in vivo
[8] = Ratio of drug level in brain to plasma of rat at 3 mg/kg, iv after 10 mins; type: ADME, organism-based; set-up: dose 3 mg/kg, route intravenous; conditions: brain and plasma, read-out: BPR
[9] = Solubility at pH 7; type: physicochemical; conditions: buffer
Rattus norvegicus [10] = experiment: Inhibition of bovine-pancreatic polypeptide-induced food intake in Sprague-Dawley rat at 30 mg/kg, po measured for 2 hrs; type: functional, organism-based; set-up: dose 30 mg/kg
Rattus norvegicus [11] = experiment: Toxicity in Sprague-Dawley rat assessed as sedation at 30 mg/kg, po; type: organism-based; set-up: dose 30 mg/kg, route oral; conditions: in vivo
Rattus norvegicus [12] = experiment: Inhibition of bovine-pancreatic polypeptide-induced food intake in po dosed Sprague-Dawley rat assessed as minimum effective dose measured for 2 hrs; type: functional; conditions: read-out: MED

Row | IC50 [1] [nM] | bioavailability [7] [%] | SMILES | other results
1 | 59 | – | O=C(Nc1cc(-c2ccc(Cl)cc2)n[nH]1)C1Cc2ccccc2C1 | –
2 | 430 | – | CS(=O)(=O)N1CC2(CCN(C(=O)Nc3ccccc3-c3ccccc3)CC2)c2ccccc21 | –
3 | 0.85 | 0 | CS(=O)(=O)N1CC2(CCN(C(=O)Nc3ccc(-c4ccccc4)cc3)CC2)c2ccccc21 | solubility [2]: < 0.01 µg/mL; logD [3]: > 4; solubility [4]: < 0.01 µg/mL; Kp at 1 h [5]: 1.93; solubility [6]: < 0.01 µg/mL; Kp at 10 min [8]: 1.3; solubility [9]: < 0.01 µg/mL
4 | 1.3 | – | CS(=O)(=O)N1CC2(CCN(C(=O)Nc3cccc(-c4ccccc4)c3)CC2)c2ccccc21 | –
5 | 3 | 12 | CS(=O)(=O)N1CC2(CCN(C(=O)Nc3ccc(-c4ccccn4)cc3)CC2)c2ccccc21 | Kp at 1 h [5]: 0.24; Kp at 10 min [8]: 0.23
6 | 7.5 | – | CS(=O)(=O)N1CC2(CCN(C(=O)Nc3ccnc(-c4ccccc4)n3)CC2)c2ccccc21 | –
7 | 9.8 | – | CS(=O)(=O)N1CC2(CCN(C(=O)Nc3nccc(-c4ccccc4)n3)CC2)c2ccccc21 | –
8 | 200 | – | CS(=O)(=O)N1C[C@]2(CC[C@@H](C(=O)Nc3ccc(-c4ccccc4)cc3)CC2)c2ccccc21 | –
9 | 180 | – | CS(=O)(=O)N1CC2(CCN(C(=O)Cc3ccc(-c4ccccc4)cc3)CC2)c2ccccc21 | –
10 | 1.4 | – | CS(=O)(=O)Nc1ccccc1N1CCN(C(=O)Nc2cc(-c3ccc(Cl)cc3)n[nH]2)CC1 | –
11 | 0.57 | 24 | CS(=O)(=O)N1CC2(CCN(C(=O)Nc3ncc(-c4ccccc4)cn3)CC2)c2ccccc21 | Kp at 1 h [5]: 0.07; Kp at 10 min [8]: 0.14
12 | 3 | 20 | CS(=O)(=O)N1CC2(CCN(C(=O)Nc3ccc(-c4ccccc4)nn3)CC2)c2ccccc21 | Kp at 1 h [5]: 0.32; Kp at 10 min [8]: 0.42
13 | 1.5 | – | CS(=O)(=O)N1C[C@]2(CC[C@H](C(=O)Nc3ccc(-c4ccccc4)cc3)CC2)c2ccccc21 | –
14 | 3 | – | NS(=O)(=O)N1CC2(CCN(C(=O)Nc3ccc(Oc4ccccc4)cc3)CC2)c2ccccc21 | –
15 | 2 | – | CC(=O)c1ccc(NC(=O)N2CCC3(CC2)CN(S(N)(=O)=O)c2ccccc23)cc1 | –
16 | 0.86 | 0 | CS(=O)(=O)N1CC2(CCN(C(=O)Nc3cnc(-c4ccccc4)nc3)CC2)c2ccccc21 | –
17 | 0.96 | 0 | CS(=O)(=O)N1CC2(CCN(C(=O)Nc3ccc(-c4ccccc4)cn3)CC2)c2ccccc21 | –
18 | 0.82 | 0 | CS(=O)(=O)N1CC2(CCN(C(=O)Nc3ccc(-c4ccccc4)nc3)CC2)c2ccccc21 | –
19 | 23 | – | CS(=O)(=O)N1CC2(CCN(C(=O)Nc3cccc(-c4ccncc4)c3)CC2)c2ccccc21 | –
20 | 5 | – | NS(=O)(=O)N1CC2(CCN(C(=O)Nc3ccccc3Cl)CC2)c2ccccc21 | –
21 | 0.97 | 0 | CS(=O)(=O)N1CC2(CCN(C(=O)Nc3cnc(-c4ccccc4)cn3)CC2)c2ccccc21 | –
22 | 2.1 | 47 | CS(=O)(=O)N1CC2(CCN(C(=O)Nc3ccc(-c4cccnc4)cc3)CC2)c2ccccc21 | Kp at 1 h [5]: 0.11; Kp at 10 min [8]: 0.13
23 | 1.2 | – | CCCCc1ccc(NC(=O)N2CCC3(CC2)CN(S(C)(=O)=O)c2ccccc23)cc1 | –

Row | SMILES | IC50 [1] [nM] | bioavailability [7] [%] | other results
24 | NS(=O)(=O)N1CC2(CCN(C(=O)Nc3ccc(Cl)c(Cl)c3)CC2)c2ccccc21 | 4 | – | –
25 | CS(=O)(=O)N1CC2(CCN(C(=O)Nc3ccc(-c4ccncc4)cc3)CC2)c2ccccc21 | 4.1 | 53 | Activity (Rattus norvegicus [10]): Active; Kp at 1 h [5]: 0.12; Activity (Rattus norvegicus [11]): Non-toxic; Kp at 10 min [8]: 0.12; minimal effective dose (Rattus norvegicus [12]): 10 mg/kg
26 | CS(=O)(=O)N1CC2(CCN(C(=O)Nc3ccc(Cl)c(Cl)c3)CC2)c2ccccc21 | 0.2 | – | –

Source: ChEMBL document CHEMBL1153322, “Identification of novel and orally active spiroindoline NPY Y5 receptor antagonists” (Bioorg Med Chem Lett, 2009)
